We go through six compounds from PMC10730852 (Communications Biology, 2023).

Experiment [1] deals with Cph001. Kind of experiment: Coupled enzyme assay and Michaelis-Menten kinetics of Cph001. Set-up: initial velocity, Figure 3c iii, Triplicate: unit not given here. Format: biochemical, Streptosporangium roseum. To be noted: for initial velocity, Figure 3c iii, Triplicate / initial velocity, Figure 3c iv, Triplicate: 20 mM CMN IIA; for kcat, phosphate donor varied / Km: in the presence of saturating CMN IIA (20 mM), mean ± SEM, n = 3; for Km: read-out: apparent Km of the phosphate donor; for phosphorylation by Cph001 in couple enzyme assay: 2 mM antibiotic substrate, ATP as phosphate donor, absorbance at 340 nm; for absorbance at 340 nm, Average of triplicate: 2 mM substrate + ATP. As to the method:
The phosphorylation reaction was measured by a coupled enzyme assay as following. […] The reactions were mixed well in a final volume of 200 μL in 96-well plates. The Cph001 activity was assayed by determining the oxidation of NADH at 340 nm. The reaction buffer and enzyme concentration of the Cph reaction was followed by previous study. The 340 nm absorbance changes were detected at 30 °C for every 1 min at a time in 15 min on an EPOCH Microplate Reader (BioTek). All reactions were carried out in triplicate.
The initial velocity data were plotted against substrate concentrations and fit the Michaelis-Menten equation. The Km and Vmax values were calculated based on the Michaelis-Menten equation. GraphPad Prism was used for statistical data analysis. All reactions were carried out in triplicate.

On the set-up of experiment [2]: method as in earlier work. To be noted: ref Antimicrob. Agents Chemother. 60, 4786, 2016 and Antimicrob. Agents Chemother. 62, e01724, 2018, cited from earlier work.
The subject of experiment [3] is E. coli/pET-22b (Control). Kind of experiment: Disk diffusion assay. Type of experiment: cell-based, E. coli BL21 Rosetta (DE3). To be noted: Escherichia coli, 37 °C, 24 hr, read-out: inhibition zones; for zone of inhibition at 12.5 µg/disc: 12.5 μg on disk; for zone of inhibition at 50 µg/disc: 50 μg on disk; for zone of inhibition at 100 µg/disc: 100 μg on disk; for zone of inhibition at 200 µg/disc: 200 μg on disk. As to the method: The E. coli BL21 Rosetta (DE3) strains containing pET22b, and its carrying cph, cph001, cph002, cph003, aph(3′)-Ia, and mphB plasmids were cultured overnight. The cells, respectively, were then diluted to 0.1 OD600 in molten LB agar with 100 μg/mL ampicillin and 500 μM IPTG for the disk diffusion assay. The cells with ampicillin and IPTG were mixed well with molten LB agar and then poured into 10 cm diameter Petri dishes. […] The Petri dishes were placed in the incubator at 37 °C and the inhibition zones were observed after 24 hr.

A further experiment concerns E. coli/cph001. Description: Disk diffusion assay. Format: cell-based, E. coli BL21 Rosetta (DE3). As to the method: (§1) The E. coli BL21 Rosetta (DE3) strains containing pET22b, and its carrying cph, cph001, cph002, cph003, aph(3′)-Ia, and mphB plasmids were cultured overnight. The cells, respectively, were then diluted to 0.1 OD600 in molten LB agar with 100 μg/mL ampicillin and 500 μM IPTG for the disk diffusion assay. The cells with ampicillin and IPTG were mixed well with molten LB agar and then poured into 10 cm diameter Petri dishes. The 7 mm disks were placed onto the LB agar and gently loaded with varying quantities of CMN IIA, CMN IIB, VIO, Kan, and Ery, ranging from 0 to 200 μg. The Petri dishes were placed in the incubator at 37 °C and the inhibition zones were observed after 24 hr.

Another experiment relates to E. coli/mphB. Kind of experiment: Disk diffusion assay. Type of experiment: cell-based, E. coli BL21 Rosetta (DE3). The settings on record: Escherichia coli, 24 h, read-out: inhibition zones. The method, then: as §1
The target in experiment [4] is T1, Cph001 (Streptosporangium roseum, UniProt D2B3F1).
T1 sequence (D2B3F1 1-286): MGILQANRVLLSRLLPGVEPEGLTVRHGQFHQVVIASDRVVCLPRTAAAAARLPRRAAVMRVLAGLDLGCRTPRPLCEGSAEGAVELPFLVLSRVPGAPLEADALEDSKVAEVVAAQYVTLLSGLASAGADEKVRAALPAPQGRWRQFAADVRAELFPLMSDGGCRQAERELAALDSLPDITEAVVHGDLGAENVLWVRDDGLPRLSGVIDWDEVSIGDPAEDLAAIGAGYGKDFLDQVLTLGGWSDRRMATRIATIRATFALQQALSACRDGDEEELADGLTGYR
Kind of experiment: Isothermal titration calorimetry (ITC) analysis of Cph001. Format: binding.
From the text: The integrated heat areas constitute a differential binding curve that was fitted with a standard single-site binding model by Origin 7.

The subject of a further experiment is E. coli/cph. Kind of experiment: Disk diffusion assay. To be noted: Escherichia coli, 24 h, read-out: inhibition zones. Format: cell-based, E. coli BL21 Rosetta (DE3). The method, then:
as §1

Where [5] appears, read: Escherichia coli, 24 h, read-out: inhibition zones.

“And” between values parts separate entries of the source, which are not always exact repeats. Identical values can stand only once. Like-named read-outs stand apart in the source and are kept apart here. Starred links: 1 amine or outer side, 2 acyl side, 3 side chain; linkers in the order of their positions; H or OH if unused. Positions of bridges follow the written chain, without caps; N, C: chain ends. Non-standard residues stand in square brackets, D forms with d. Residues, ends and D or L forms follow the SMILES beside them. *: point of attachment. X1 = NC1=N[C@@H]([C@H](N[*:1])C(=O)[*:2])C[C@H](O)N1; ΔAla(Z-3-ureido) = NC(=O)N/C=C(\N)C(=O)O; β3hOrn = NCCC[C@H](N)CC(=O)*; Dap = NC[C@H](N)C(=O)O

As to `Nc1ncnc2c1ncn2C1OC(COP(=O)(O)OP(=O)(O)OP(=O)(O)O)C(O)C1O` (centres unmarked) [ATP], the “initial velocity, Figure 3c iii, Triplicate” value with Cph001 [1] (0.01 mM ATP) is 0.0001332 and 0.000121 and 0.0001197; in the experiment on Cph001 [1] (0.02 mM ATP), 0.0001161 and 0.0001344 and 0.0001332; in the experiment with Cph001 [1] (0.05 mM ATP) it was 0.0002407 and 0.0001564 and 0.0001833; with Cph001 [1] (0.1 mM ATP), 0.0002407 and 0.0002053 and 0.0001552; in the experiment with Cph001 [1] (0.2 mM ATP), 0.0003336 and 0.0003519 and 0.0003385; in the experiment with Cph001 [1] (0.4 mM ATP), 0.0003201 and 0.0003715 and 0.0003678. Further, the “initial velocity, Figure 3c iii, Triplicate” value with Cph001 [1] (0.6 mM ATP) is 0.0004387 and 0.0003983; in the experiment with Cph001 [1] (0.8 mM ATP), 0.0003825 and 0.0004668 and 0.0004985. For the same compound, the “kcat, phosphate donor varied” value in the experiment with Cph001 [1] was 0.00967 ± 0.0005 s⁻¹. In addition, the Km in the experiment on Cph001 [1] came to 70 ± 20 µM.
`NC[C@H]1O[C@H](O[C@H]2[C@H](O)[C@@H](O[C@H]3O[C@H](CO)[C@@H](O)[C@H](N)[C@H]3O)[C@H](N)C[C@@H]2N)[C@H](O)[C@@H](O)[C@@H]1O` [Kan, kanamycin]: the “phosphorylation by Cph001 in couple enzyme assay” value (“phosphorylation by Cph001” below) with Cph001 [1] is “only capable of phosphorylating VIO”.
Turning to capreomycin, the values for the MIC in experiment [2] (approximate molar equivalent) and in experiment [2] were 1.5 to 4.5 µM and 1 to 3 µg/mL, respectively.
Consider `CC[C@H]1OC(=O)[C@H](C)[C@@H](O[C@H]2C[C@@](C)(OC)[C@@H](O)[C@H](C)O2)[C@H](C)[C@@H](O[C@@H]2O[C@H](C)C[C@H](N(C)C)[C@H]2O)[C@](C)(O)C[C@@H](C)C(=O)[C@H](C)[C@@H](O)[C@]1(C)O` [Ery, erythromycin], for which, in experiment [3], the zone of inhibition at 12.5 µg/disc worked out at 24 mm, the zone of inhibition at 50 µg/disc turned out to be 27 mm, the zone of inhibition at 100 µg/disc came to 29 mm and the zone of inhibition at 200 µg/disc was found to be 31 mm. In the experiment on Cph001 [1], the “phosphorylation by Cph001” value was “only capable of phosphorylating VIO”. Moreover, in the experiment with E. coli/cph001 (setting [5]), the zone of inhibition at 12.5 µg/disc came to 23 mm and the zone of inhibition at 200 µg/disc was 32 mm. In addition, in the experiment on E. coli/mphB, the zone of inhibition at 12.5 µg/disc was 15.5 mm, the zone of inhibition at 50 µg/disc worked out at 21.5 mm, the zone of inhibition at 100 µg/disc came out at 23 mm and the zone of inhibition at 200 µg/disc was determined as 24 mm.
In turn, `NCCC[C@H](N)CC(=O)N[C@H]1CNC(=O)[C@H]([C@H]2C[C@H](O)NC(N)=N2)NC(=O)/C(=C/NC(N)=O)NC(=O)[C@H](CO)NC(=O)[C@H](CO)NC1=O` [VIO, viomycin] (β3hOrn-[Dap]SS[ΔAla(Z-3-ureido)][X1]; lactam 1-C) displayed a Kd at Cph001 [4] of 4.18 ± 0.68 µM. For the same compound, the zone of inhibition at 12.5 µg/disc in experiment [3] turned out to be 23.5 mm; in the experiment with E. coli/cph001 (setting [5]), 8 mm; in the experiment with E. coli/cph, 8.5 mm. The zone of inhibition at 50 µg/disc was 27 mm in experiment [3], 12 mm in the experiment on E. coli/cph001 (setting [5]) and 10 mm in the experiment on E. coli/cph. For the same compound, the results for the zone of inhibition at 100 µg/disc (in experiment [3]; in the experiment with E. coli/cph001 (setting [5]); in the experiment with E. coli/cph) were 29 mm, 15 mm and 11 mm, respectively. For the same compound, the zone of inhibition at 200 µg/disc stood at 30 mm in experiment [3], 17.5 mm with E. coli/cph001 (setting [5]) and 12 mm in the experiment on E. coli/cph. Further, the “phosphorylation by Cph001” value in the experiment with Cph001 [1] was “only capable of phosphorylating VIO”. In addition, the “absorbance at 340 nm, Average of triplicate” value (shortened to “absorbance at 340 nm, Average”) in the experiment with Cph001 [1] (time 00:00:00) worked out at 1.495; in the experiment with Cph001 [1] (time 00:01:00), 1.515; with Cph001 [1] (time 00:02:00), 1.474; with Cph001 [1] (time 00:03:00), 1.3778; with Cph001 [1] (time 00:04:00), 1.2968; in the experiment with Cph001 [1] (time 00:05:00), 1.217. For the same compound, the “absorbance at 340 nm, Average” value in the experiment on Cph001 [1] (time 00:06:00) stood at 1.012; in the experiment on Cph001 [1] (time 00:07:00) it was 0.8175; in the experiment on Cph001 [1] (time 00:08:00), 0.6031; with Cph001 [1] (time 00:09:00), 0.4177; in the experiment with Cph001 [1] (time 00:10:00), 0.2691; in the experiment on Cph001 [1] (time 00:11:00), 0.254. Also, the “absorbance at 340 nm, Average” value in the experiment on Cph001 [1] (time 00:12:00) is reported as 0.2155; with Cph001 [1] (time 00:13:00), 0.1675; in the experiment with Cph001 [1] (time 00:14:00), 0.1401; in the experiment with Cph001 [1] (time 00:15:00), 0.1225. Also, the “resistance in disk diffusion assay” value in the experiment with E. coli/cph001 (E. coli harboring cph001) is “resistant”.
Regarding `Nc1nc2c(ncn2[C@@H]2O[C@H](COP(=O)(O)OP(=O)(O)OP(=O)(O)O)[C@@H](O)[C@H]2O)c(=O)[nH]1` [GTP], the “initial velocity, Figure 3c iv, Triplicate” value with Cph001 [1] (0.02 mM GTP) is 9.164e-5 and 7.331e-5 and 0.0001283; with Cph001 [1] (0.05 mM GTP), 9.164e-5 and 0.0001521 and 0.0001466; in the experiment with Cph001 [1] (0.1 mM GTP) it was 0.0002053 and 0.0001576 and 0.0002218; in the experiment with Cph001 [1] (0.2 mM GTP), 0.0003519 and 0.0003501 and 0.0003886; in the experiment with Cph001 [1] (0.4 mM GTP), 0.0005242 and 0.0006232 and 0.0004326; in the experiment with Cph001 [1] (0.6 mM GTP), 0.0006012 and 0.0005554 and 0.000493. For the same compound, the “initial velocity, Figure 3c iv, Triplicate” value was 0.0006525 and 0.0006232 and 0.000592 in the experiment with Cph001 [1] (1 mM GTP); 0.0006287 and 0.0006397 and 0.0005095 in the experiment with Cph001 [1] (2 mM GTP). Also, the “kcat, phosphate donor varied” value with Cph001 [1] was 0.0152 ± 0.00067 s⁻¹. In addition, the Km in the experiment on Cph001 [1] stood at 180 ± 30 µM.
